Values after ≈ are worked out from the molar mass of the structure shown. Numbered stars: 1 amine (or outer) side, 2 acyl side, 3 side chain; on linkers, the order of the positions; unused ones are H or OH. Side chains are listed from the residue outwards. Peptide text beside a SMILES is read from it. * marks the point of attachment. C20 diacid = O=C(O)CCCCCCCCCCCCCCCCCCC(=O)*; γGlu = O=C(O)[C@H](CCC(=O)[*:2])N[*:1]

What is called IC50 is the midpoint of a concentration-inhibition curve. For orientation: solubility means the dissolved amount per volume that the medium holds. A high value points to a readily soluble substance.

One data set has as its target T1, rat calcitonin receptor (Rattus norvegicus, UniProt P32214).
T1 construct: expressed in transfected cells; host or cells: BHK tk'ts 13 (transient, FuGENE 6)
T1 sequence (P32214 25-479 isoform P32214-2 limits assumed): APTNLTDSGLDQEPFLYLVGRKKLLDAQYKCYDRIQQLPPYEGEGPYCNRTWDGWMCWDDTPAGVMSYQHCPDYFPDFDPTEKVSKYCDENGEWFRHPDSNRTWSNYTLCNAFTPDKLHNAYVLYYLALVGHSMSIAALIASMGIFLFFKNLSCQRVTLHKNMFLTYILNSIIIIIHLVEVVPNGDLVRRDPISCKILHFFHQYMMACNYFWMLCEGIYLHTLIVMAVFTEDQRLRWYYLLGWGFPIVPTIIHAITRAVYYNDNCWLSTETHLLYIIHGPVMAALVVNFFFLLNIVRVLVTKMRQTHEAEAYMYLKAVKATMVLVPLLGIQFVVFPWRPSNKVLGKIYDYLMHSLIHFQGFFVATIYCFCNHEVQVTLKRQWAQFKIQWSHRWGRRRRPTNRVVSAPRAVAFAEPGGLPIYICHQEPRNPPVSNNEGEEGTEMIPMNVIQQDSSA
The experiment in a line: Assay (VIII) binding to the rat calcitonin receptor. Particulars: membranes; read-out: rCT-R binding IC50. The protocol:
The morning after, the plates were washed three times in HBSS (4° C.), and lyzed in Lysis buffer (0.1 M NaOH), 1% SDS. Scintillation cocktail (MicroScint40®) was added and the plates were shaken at 500 rpm for a short period. The plate was incubated at room temperature in the dark for 1 hour and Read on a TopCounter™ (Packard). The IC50 was calculated using (one site binding competition analysis) GraphPad Prism5 as a measure of receptor affinity. Assay (VIII)—Determination of Binding to the Rat Calcitonin Receptor
The assay was performed as described above (Assay (VII)—Determination of binding to the human calcitonin receptor) with the exception that we used membranes prepared from BHK tk'ts 13 cells that were transiently transfected with the rat calcitonin receptor. The BHK tk'ts 13 cells were transiently transfected with rat calcitonin receptor using FuGENE® 6 (Roche), according to the manufacturer's recommendations. Cells were grown in DMEM with 10% FBS and 1% Pen/Strep.

Data set [1] is described as follows: Assay (IV) determination of solubility. Type of data set: physicochemical. The protocol: Assay (IV)—Determination of Solubility
The mimylin peptide was dissolved in water at ˜500 nmol/ml and mixed 1:1 with a series of buffers (100 mM glycylglycine pH 3.0, 100 mM glycylglycine pH 4.0, 100 mM glycylglycine pH 5.0, 100 mM bistrispropane pH 6.0, 100 mM bistrispropane pH 6.5, 100 mM bistrispropane pH 7.0, 100 mM bistrispropane pH 7.5, 100 mM bistrispropane pH 8.0).

Consider `CC(C)C[C@H](NC(=O)CNC(=O)[C@H](CO)NC(=O)[C@H](C)NC(=O)CC[C@H](NC(=O)CCCCCCCCCCCCCCCCCCC(=O)O)C(=O)O)C(=O)N[C@@H](CO)C(=O)N[C@H](C(=O)N[C@@H](C)C(=O)N[C@H](C(=O)N[C@@H](CC(C)C)C(=O)NCC(=O)N[C@@H](CCCNC(=N)N)C(=O)N[C@@H](CC(C)C)C(=O)N[C@@H](CO)C(=O)N[C@@H](CCC(N)=O)C(=O)N[C@@H](CCC(=O)O)C(=O)N[C@@H](CC(C)C)C(=O)N[C@@H](Cc1cnc[nH]1)C(=O)N[C@@H](CCC(=O)O)C(=O)N[C@@H](CC(C)C)C(=O)N[C@@H](CCC(N)=O)C(=O)N[C@H](C(=O)N[C@@H](Cc1ccc(O)cc1)C(=O)N1CCC[C@H]1C(=O)N1CCC[C@H]1C(=O)N[C@H](C(=O)N[C@@H](CCC(=O)O)C(=O)N[C@H](C(=O)NCC(=O)N[C@@H](CO)C(=O)NCC(=O)N[C@H](C(=O)N[C@@H](Cc1ccc(O)cc1)C(N)=O)[C@@H](C)O)[C@@H](C)O)[C@@H](C)O)[C@@H](C)O)[C@@H](C)O)[C@@H](C)O` [compound 128, [N-terminal(C20 diacid-gGlu), des1, 4G, 9T, 15Q, 21Q, 23Y, 25P, 30S, 31G, 32T, 33Y]mimylin] ({C20 diacid-γGlu}-ASGLSTATLGRLSQELHELQTYPPTETGSGTY-NH2), for which, at rat calcitonin receptor, the IC50 was determined as 0.028 nM. For the same compound, the Solubility result in data set [1] (pH 3.0), in data set [1] (pH 5.0), in data set [1] (pH 6.0), in data set [1] (pH 6.5), in data set [1] (pH 7.0) and in data set [1] (pH 7.5) was “≧200 μM” in each case. Moreover, in data set [1] (pH 8.0), the Solubility entry was “≧200 μM”. Besides, the solubility at 18 h in data set [1] (pH 4.0) turned out to be 25 µM (≈ 95.5 µg/mL).

Take `CC(C)C[C@H](NC(=O)[C@H](C)NC(=O)[C@H](C)NC(=O)[C@@H](NC(=O)[C@H](CO)NC(=O)[C@H](CC(C)C)NC(=O)[C@H](CCC(=O)O)NC(=O)[C@H](CO)NC(=O)[C@H](C)NC(=O)CC[C@H](NC(=O)CCCCCCCCCCCCCCCCCCC(=O)O)C(=O)O)[C@@H](C)O)C(=O)NCC(=O)N[C@@H](Cc1cnc[nH]1)C(=O)N[C@@H](CC(C)C)C(=O)N[C@@H](CO)C(=O)N[C@@H](C)C(=O)N[C@@H](CCC(=O)O)C(=O)N[C@@H](CC(C)C)C(=O)N[C@@H](Cc1cnc[nH]1)C(=O)N[C@@H](CCC(=O)O)C(=O)N[C@@H](CC(C)C)C(=O)N[C@@H](C)C(=O)N[C@H](C(=O)N[C@@H](CC(C)C)C(=O)N1CCC[C@H]1C(=O)N[C@@H](CCCNC(=N)N)C(=O)N[C@H](C(=O)N[C@@H](CCC(=O)O)C(=O)N[C@H](C(=O)NCC(=O)N[C@@H](CO)C(=O)NCC(=O)N[C@@H](CO)C(=O)N1CCC[C@H]1C(N)=O)[C@@H](C)O)[C@@H](C)O)[C@@H](C)O` [compound 72, [N-terminal(C20 diacid-gGlu), des1, 12H, 30S, 31G]mimylin] ({C20 diacid-γGlu}-ASELSTAALGHLSAELHELATLPRTETGSGSP-NH2): at rat calcitonin receptor, the IC50 came to 0.085 nM. Also, the Solubility entry in data set [1] (pH 3.0), in data set [1] (pH 4.0), in data set [1] (pH 5.0), in data set [1] (pH 6.0), in data set [1] (pH 6.5) and in data set [1] (pH 7.0) was “≧200 μM” in each case. The Solubility entry in data set [1] (pH 7.5) and in data set [1] (pH 8.0) was “≧200 μM” each time.

As to `CC(C)C[C@H](NC(=O)[C@H](C)NC(=O)[C@H](C)NC(=O)[C@@H](NC(=O)[C@H](CO)NC(=O)[C@H](CC(C)C)NC(=O)[C@H](CCC(=O)O)NC(=O)[C@H](CO)NC(=O)[C@H](C)N)[C@@H](C)O)C(=O)NCC(=O)N[C@@H](CCCNC(=N)N)C(=O)N[C@@H](CC(C)C)C(=O)N[C@@H](CO)C(=O)N[C@@H](C)C(=O)N[C@@H](CCCCNC(=O)CC[C@H](NC(=O)CCCCCCCCCCCCCCCCCCC(=O)O)C(=O)O)C(=O)N[C@@H](CC(C)C)C(=O)N[C@@H](Cc1cnc[nH]1)C(=O)N[C@@H](CCC(=O)O)C(=O)N[C@@H](CC(C)C)C(=O)N[C@@H](C)C(=O)N[C@H](C(=O)N[C@@H](CC(C)C)C(=O)N1CCC[C@H]1C(=O)N[C@@H](CCCNC(=N)N)C(=O)N[C@H](C(=O)N[C@@H](CCC(=O)O)C(=O)N[C@H](C(=O)NCC(=O)N[C@@H](CO)C(=O)NCC(=O)N[C@@H](CO)C(=O)N1CCC[C@H]1C(N)=O)[C@@H](C)O)[C@@H](C)O)[C@@H](C)O` [compound 53, [des1, 16K(C20 diacid-gGlu), 30S, 31G]mimylin] (H-ASELSTAALGRLSAK([γGlu-C20 diacid])LHELATLPRTETGSGSP-NH2), at rat calcitonin receptor, the IC50 was determined as 0.065 nM. In addition, the Solubility result in data set [1] (pH 3.0), in data set [1] (pH 4.0), in data set [1] (pH 5.0), in data set [1] (pH 6.0), in data set [1] (pH 6.5) and in data set [1] (pH 7.0) was “≧200 μM” throughout. Further, the Solubility entry in data set [1] (pH 7.5) and in data set [1] (pH 8.0) was “≧200 μM” each time.

`CC(C)C[C@H](NC(=O)[C@H](C)NC(=O)[C@H](C)NC(=O)[C@@H](NC(=O)[C@H](CO)NC(=O)[C@H](CC(C)C)NC(=O)[C@H](CCC(=O)O)NC(=O)[C@H](CO)NC(=O)[C@H](C)N)[C@@H](C)O)C(=O)NCC(=O)N[C@@H](CCCNC(=N)N)C(=O)N[C@@H](CC(C)C)C(=O)N[C@@H](CO)C(=O)N[C@@H](C)C(=O)N[C@@H](CCC(=O)O)C(=O)N[C@@H](CC(C)C)C(=O)N[C@@H](Cc1cnc[nH]1)C(=O)N[C@@H](CCCCNC(=O)CC[C@H](NC(=O)CCCCCCCCCCCCCCCCCCC(=O)O)C(=O)O)C(=O)N[C@@H](CC(C)C)C(=O)N[C@@H](C)C(=O)N[C@H](C(=O)N[C@@H](CC(C)C)C(=O)N1CCC[C@H]1C(=O)N[C@@H](CCCNC(=N)N)C(=O)N[C@H](C(=O)N[C@@H](CCC(=O)O)C(=O)N[C@H](C(=O)NCC(=O)N[C@@H](CO)C(=O)NCC(=O)N[C@@H](CO)C(=O)N1CCC[C@H]1C(N)=O)[C@@H](C)O)[C@@H](C)O)[C@@H](C)O` [compound 54, [des1, 19K(C20 diacid-gGlu), 30S, 31G]mimylin] (H-ASELSTAALGRLSAELHK([γGlu-C20 diacid])LATLPRTETGSGSP-NH2): the IC50 on rat calcitonin receptor was 0.044 nM. The Solubility result in data set [1] (pH 3.0), in data set [1] (pH 4.0), in data set [1] (pH 5.0), in data set [1] (pH 6.0), in data set [1] (pH 6.5) and in data set [1] (pH 7.0) was “≧200 μM” throughout. Also, the Solubility entry in data set [1] (pH 7.5) and in data set [1] (pH 8.0) was “≧200 μM” in each case.

Take `CC(C)C[C@H](NC(=O)[C@H](CCCNC(=N)N)NC(=O)CNC(=O)[C@H](CC(C)C)NC(=O)[C@@H](NC(=O)[C@H](C)NC(=O)[C@@H](NC(=O)[C@H](CO)NC(=O)[C@H](CC(C)C)NC(=O)[C@H](CCC(N)=O)NC(=O)[C@H](CO)NC(=O)[C@H](C)NC(=O)CC[C@H](NC(=O)CCCCCCCCCCCCCCCCCCC(=O)O)C(=O)O)[C@@H](C)O)C(C)C)C(=O)N[C@@H](CO)C(=O)N[C@@H](CCC(N)=O)C(=O)N[C@@H](CCCNC(=N)N)C(=O)N[C@@H](CC(C)C)C(=O)N[C@@H](Cc1cnc[nH]1)C(=O)N[C@@H](CCCNC(=N)N)C(=O)N[C@@H](CC(C)C)C(=O)N[C@@H](CCC(N)=O)C(=O)N[C@H](C(=O)N[C@@H](Cc1ccc(O)cc1)C(=O)N1CCC[C@H]1C(=O)N[C@@H](CCCNC(=N)N)C(=O)N[C@H](C(=O)N[C@@H](CCC(N)=O)C(=O)N[C@H](C(=O)NCC(=O)N[C@@H](CO)C(=O)N[C@@H](CCC(N)=O)C(=O)N[C@H](C(=O)N[C@@H](Cc1ccc(O)cc1)C(N)=O)[C@@H](C)O)[C@@H](C)O)[C@@H](C)O)[C@@H](C)O` [compound 132, [N-terminal(C20 diacid-gGlu), des1, 4Q, 9V, 15Q, 16R, 19R, 21Q, 23Y, 27Q, 30S, 31Q, 32T, 33Y]mimylin] ({C20 diacid-γGlu}-ASQLSTAVLGRLSQRLHRLQTYPRTQTGSQTY-NH2): the IC50 at rat calcitonin receptor stood at 0.069 nM.

(Values after patent US9593149B2, “Amylin and calcitonin receptor agonist” (Novo Nordisk A/S, priority 2014, dated 2017).)
